The values that follow are results of earlier work, collected in patent US20120245171A1, “BENZPYRAZOLE DERIVATIVES AS INHIBITORS OF PI3 KINASES” (GLAXO GROUP LIMITED, priority 2009, published 2012).

Each structure is given as a SMILES string. pIC50: −log10 of the molar value. Like-named read-outs stand apart in the source and are kept apart here.

One data set concerns the target CK2 protein kinase (Homo sapiens, UniProt P68400).
For data set [1], the system named is neutrophils. The settings on record: for superoxide release: neutrophils.
Another data set relates to Class I PI3-kinases. The conditions noted are these: each of the Class I PI3-kinases.
The subject of data set [2] is neutrophils. The conditions noted are these: treatment of neutrophils; Thelen et al. 1994.

Sequence of CK2 protein kinase (P68400 whole entry): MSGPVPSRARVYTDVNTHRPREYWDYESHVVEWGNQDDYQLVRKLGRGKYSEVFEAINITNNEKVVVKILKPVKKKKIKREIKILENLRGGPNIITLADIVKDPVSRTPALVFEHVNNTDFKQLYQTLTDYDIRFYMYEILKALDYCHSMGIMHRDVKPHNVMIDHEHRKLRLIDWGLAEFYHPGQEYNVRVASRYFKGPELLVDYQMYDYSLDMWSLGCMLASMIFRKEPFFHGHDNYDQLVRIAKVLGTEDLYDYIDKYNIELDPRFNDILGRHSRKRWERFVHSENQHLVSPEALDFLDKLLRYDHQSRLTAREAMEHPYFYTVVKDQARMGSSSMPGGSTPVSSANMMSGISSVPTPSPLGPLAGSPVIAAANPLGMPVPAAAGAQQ

In the case of `O=c1cc(N2CCOCC2)oc2c(-c3ccccc3)cccc12` [LY294002], the pIC50 (as a rule, the negative decadic logarithm of the IC50, by convention in mol/L) at CK2 protein kinase is 5.00 to 5.30. In addition, in the data set on neutrophils [1], the neutrophil migration entry was “block” and the superoxide release result is “block”. In addition, the pIC50 in the data set on Class I PI3-kinases (Fruman et al. 1998, read-out: IC50 against each of these PI3-kinases) was 4.70 to 4.82.
Turning to `COC[C@H]1OC(=O)c2coc3c2[C@@]1(C)C1=C(C3=O)[C@@H]2CCC(=O)[C@@]2(C)C[C@H]1OC(C)=O` [wortmannin], in the data set with neutrophils [1], the neutrophil migration entry was “block” and the superoxide release result is “block”. The “fMLP-induced respiratory burst response” value in the data set on neutrophils [2] is reported as “prevents”. In the data set on Class I PI3-kinases (read-out: IC50 against each of the various Class I PI3-kinases), the pIC50 is 8.00 to 9.00.
